Test results published in ChEMBL document CHEMBL1141848, “Prenylagaramides A and B, new cyclic peptides from two strains of oscillatoria agardhii” (J Nat Prod, 1999).
Active and inactive are the calls of the source. No cut-off for these calls is given here. Residues, ends and D or L forms follow the SMILES beside them. *: point of attachment. Prenyl = CC(C)=CC*

Key:
[1] = Inhibition of trypsin
[2] = biological target: Prothrombin (Homo sapiens) (UniProt P00734); experiment: Inhibition of thrombin
[3] = biological target: Plasminogen (Homo sapiens) (UniProt P00747); experiment: Inhibition of plasmin
[4] = Inhibition of chymotrypsin
[5] = Inhibition of elastase
[6] = biological target: Cytosol aminopeptidase (Homo sapiens) (UniProt P28838); experiment: Inhibition of leucine amino peptidase
Papain (Carica papaya) = biological target: T1, Papain (Carica papaya) (UniProt P00784); experiment: Inhibition of papaya papain
T1 sequence (whole entry): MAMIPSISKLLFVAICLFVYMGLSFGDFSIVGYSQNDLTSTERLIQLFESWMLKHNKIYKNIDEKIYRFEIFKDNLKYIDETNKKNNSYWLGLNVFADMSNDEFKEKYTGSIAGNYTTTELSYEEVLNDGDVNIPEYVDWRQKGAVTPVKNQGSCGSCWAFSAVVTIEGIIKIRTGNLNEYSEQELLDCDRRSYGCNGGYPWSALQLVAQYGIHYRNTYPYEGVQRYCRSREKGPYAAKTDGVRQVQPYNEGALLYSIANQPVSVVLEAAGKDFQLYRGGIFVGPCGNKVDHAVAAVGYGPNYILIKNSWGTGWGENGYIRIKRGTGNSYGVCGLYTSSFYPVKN

P388 = experiment: Cytotoxicity against mouse P388 cells; assay type: functional, cell-based

Sequence of Plasminogen (Homo sapiens) (P00747 97-580 limits assumed): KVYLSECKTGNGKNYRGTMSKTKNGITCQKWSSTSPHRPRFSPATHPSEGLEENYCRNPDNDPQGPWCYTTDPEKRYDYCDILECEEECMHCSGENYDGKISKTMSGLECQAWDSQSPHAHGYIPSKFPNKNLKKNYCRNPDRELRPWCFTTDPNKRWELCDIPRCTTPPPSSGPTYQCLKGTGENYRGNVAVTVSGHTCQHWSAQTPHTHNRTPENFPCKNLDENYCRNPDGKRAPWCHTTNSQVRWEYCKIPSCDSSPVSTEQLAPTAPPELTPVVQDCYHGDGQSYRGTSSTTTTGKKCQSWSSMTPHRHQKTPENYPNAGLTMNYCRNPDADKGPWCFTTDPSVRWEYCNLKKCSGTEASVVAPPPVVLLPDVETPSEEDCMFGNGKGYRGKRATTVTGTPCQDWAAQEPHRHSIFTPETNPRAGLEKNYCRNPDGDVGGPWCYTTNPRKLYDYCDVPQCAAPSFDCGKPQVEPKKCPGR
Sequence of Plasminogen (Homo sapiens) (P00747 581-810 limits assumed): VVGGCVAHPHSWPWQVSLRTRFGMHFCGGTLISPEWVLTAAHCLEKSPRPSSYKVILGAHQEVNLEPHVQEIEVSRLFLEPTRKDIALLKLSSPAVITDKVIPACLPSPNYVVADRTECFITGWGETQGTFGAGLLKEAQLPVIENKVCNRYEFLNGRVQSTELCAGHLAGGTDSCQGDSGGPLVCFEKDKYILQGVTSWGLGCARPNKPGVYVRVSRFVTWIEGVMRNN
Sequence of Cytosol aminopeptidase (Homo sapiens) (P28838 whole entry): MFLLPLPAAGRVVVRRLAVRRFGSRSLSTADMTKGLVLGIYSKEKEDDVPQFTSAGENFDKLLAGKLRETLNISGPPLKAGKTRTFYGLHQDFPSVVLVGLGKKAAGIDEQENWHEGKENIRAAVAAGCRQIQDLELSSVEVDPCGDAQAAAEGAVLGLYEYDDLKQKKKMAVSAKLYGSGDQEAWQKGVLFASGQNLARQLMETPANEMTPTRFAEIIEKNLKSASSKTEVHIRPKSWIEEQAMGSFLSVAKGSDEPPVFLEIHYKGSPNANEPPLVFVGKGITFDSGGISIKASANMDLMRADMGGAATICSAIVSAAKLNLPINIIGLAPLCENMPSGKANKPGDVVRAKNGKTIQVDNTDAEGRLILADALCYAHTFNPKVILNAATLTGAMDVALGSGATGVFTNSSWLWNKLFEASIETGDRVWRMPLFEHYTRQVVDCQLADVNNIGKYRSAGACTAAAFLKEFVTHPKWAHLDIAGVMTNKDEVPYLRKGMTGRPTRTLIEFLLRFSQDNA

Activity [1] | Activity [2] | Activity [3] | Activity [4] | Activity [5] | Activity [6] | Activity (Papain (Carica papaya)) | SMILES | Activity (P388)
inactive | inactive | inactive | inactive | inactive | inactive | inactive | CC(C)=CCOc1ccc(C[C@@H]2NC(=O)[C@@H]3CCCN3C(=O)[C@H](CC(N)=O)NC(=O)[C@H](Cc3ccccc3)NC(=O)[C@H](Cc3ccccc3)NC(=O)[C@H](CCC(=O)O)NC(=O)CNC(=O)[C@H]([C@@H](C)O)NC(=O)CNC2=O)cc1 (cyclo(EFFNPY(Prenyl)GTG)) | inactive
inactive | inactive | inactive | inactive | inactive | inactive | inactive | CC[C@H](C)[C@@H]1NC(=O)[C@@H]2CCCN2C(=O)[C@H](Cc2ccc(O)cc2)NC(=O)[C@H](CC(C)C)NC(=O)[C@H](Cc2ccc(OCC=C(C)C)cc2)NC(=O)[C@@H]2CCCN2C(=O)[C@H](CC(N)=O)NC1=O (cyclo(INPY(Prenyl)LYP)) | inactive
